Data published in PubChem BioAssay AID330 (DTP/NCI, 2004).
Several values for one entry are separate records, joined by “and”; a condition that tells them apart may be missing. Equal values may be shown once. Inconclusive results and toxic doses are left out. Square brackets hold non-standard residues; d marks the D form. Peptide text beside a SMILES is read from it. * marks the point of attachment. ξ: configuration not given here. Cbz = O=C(OCc1ccccc1)*; ξNva = CCCC(N)C(=O)O

Tested on: P388 leukemia ip, CD2F1 mice, survival T/C
Test: NCI In Vivo Anticancer Drug Screen. Data for tumor model P388 Leukemia (intraperitoneal) in CD2F1 (CDF1) mice
Settings: endpoint: median survival time, higher = longer survival
In short: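 Mice carrying the transplanted tumor received test compound or vehicle. Survival was recorded in each group, and the value is the treated-group measurement divided by that of the vehicle-treated control group.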

[1] = dose: 50.0 mg/kg/injection, schedule: Q01DX005 (ip), vehicle: Klucel (hydroxypropylcellulose) (HPC)
[2] = dose: 100.0 mg/kg/injection, schedule: Q01DX005 (ip), vehicle: Klucel (hydroxypropylcellulose) (HPC)
[3] = dose: 200.0 mg/kg/injection, schedule: Q01DX005 (ip), vehicle: Klucel (hydroxypropylcellulose) (HPC)
[4] = dose: 60.0 mg/kg/injection, schedule: Q01DX005 (ip), vehicle: Klucel (hydroxypropylcellulose) (HPC)
[5] = dose: 120.0 mg/kg/injection, schedule: Q01DX005 (ip), vehicle: Klucel (hydroxypropylcellulose) (HPC)
[6] = dose: 240.0 mg/kg/injection, schedule: Q01DX005 (ip), vehicle: Klucel (hydroxypropylcellulose) (HPC)
[7] = dose: 50.0 mg/kg/injection, schedule: Q01DX009 (ip), vehicle: saline
[8] = dose: 100.0 mg/kg/injection, schedule: Q01DX009 (ip), vehicle: saline
[9] = dose: 200.0 mg/kg/injection, schedule: Q01DX009 (ip), vehicle: saline
[10] = dose: 60.0 mg/kg/injection, schedule: Q01DX005 (ip), vehicle: saline
[11] = dose: 120.0 mg/kg/injection, schedule: Q01DX005 (ip), vehicle: saline
[12] = dose: 240.0 mg/kg/injection, schedule: Q01DX005 (ip), vehicle: saline
[13] = dose: 60.0 mg/kg/injection, schedule: Q01DX005 (ip), vehicle: saline with Tween-80
[14] = dose: 120.0 mg/kg/injection, schedule: Q01DX005 (ip), vehicle: saline with Tween-80
[15] = dose: 50.0 mg/kg/injection, schedule: Q01DX009 (ip), vehicle: Klucel (hydroxypropylcellulose) (HPC)
[16] = dose: 100.0 mg/kg/injection, schedule: Q01DX009 (ip), vehicle: Klucel (hydroxypropylcellulose) (HPC)
[17] = dose: 200.0 mg/kg/injection, schedule: Q01DX009 (ip), vehicle: Klucel (hydroxypropylcellulose) (HPC)
[18] = dose: 100.0 mg/kg/injection, schedule: Q01DX001 (ip), vehicle: saline with Tween-80
[19] = dose: 200.0 mg/kg/injection, schedule: Q01DX001 (ip), vehicle: saline with Tween-80
[20] = dose: 400.0 mg/kg/injection, schedule: Q01DX001 (ip), vehicle: saline with Tween-80
[21] = dose: 50.0 mg/kg/injection, schedule: Q01DX005 (ip), vehicle: saline with Tween-80
[22] = dose: 100.0 mg/kg/injection, schedule: Q01DX005 (ip), vehicle: saline with Tween-80

## CCOC(=O)c1nc(Cl)nc(Cl)c1I
dose: 3.13 mg/kg/injection, schedule: Q01DX009 (ip), vehicle: distilled water + Tween-80
  T/C: 99 % of control
dose: 6.25 mg/kg/injection, schedule: Q01DX009 (ip), vehicle: distilled water + Tween-80
  T/C: 110 % of control
dose: 12.5 mg/kg/injection, schedule: Q01DX009 (ip), vehicle: distilled water + Tween-80
  T/C: 112 % of control and 123 % of control
dose: 25.0 mg/kg/injection, schedule: Q01DX009 (ip), vehicle: distilled water + Tween-80
  T/C: 101 % of control and 112 % of control
dose: 50.0 mg/kg/injection, schedule: Q01DX009 (ip), vehicle: distilled water + Tween-80
  T/C: 90 % of control

## CCCC(NC(=O)OCc1ccccc1)C(=O)NCC(N)=O (stereo not given) (Cbz-[ξNva]-Gly-NH2)
[1]
  T/C: 103 % of control
[2]
  T/C: 100 % of control
[3]
  T/C: 100 % of control

## Nc1nc(-c2ccc3ccccc3c2)cc(-c2cc(-c3ccc4ccccc4c3)nc(N)n2)n1
[4]
  T/C: 96 % of control
[5]
  T/C: 93 % of control
[6]
  T/C: 91 % of control

## CN(C)C(=O)NCCCCCCNC(=O)N(C)C
[7]
  T/C: 105 % of control
[8]
  T/C: 100 % of control
[9]
  T/C: 110 % of control

## CCOC(=O)C12CCCC1=NN=C2C1=NN=C2CCCC21C(=O)OCC (stereo not given)
[10]
  T/C: 103 % of control
[11]
  T/C: 98 % of control
[12]
  T/C: 101 % of control

## C1CN1c1nc(N2CC2)nc(N2CC2)n1
dose: 0.05 mg/kg/injection, schedule: Q01DX009 (ip), vehicle: saline
  T/C: 111 % of control
dose: 0.13 mg/kg/injection, schedule: Q01DX009 (ip), vehicle: saline
  T/C: 115 % of control
dose: 0.2 mg/kg/injection, schedule: Q01DX009 (ip), vehicle: saline
  T/C: 159 % of control
dose: 0.25 mg/kg/injection, schedule: Q01DX009 (ip), vehicle: saline
  T/C: 150 % of control and 169 % of control
dose: 0.4 mg/kg/injection, schedule: Q01DX009 (ip), vehicle: saline
  T/C: 235 % of control
dose: 0.5 mg/kg/injection, schedule: Q01DX009 (ip), vehicle: saline
  T/C: 106 % of control and 120 % of control and 246 % of control
dose: 1.0 mg/kg/injection, schedule: Q01DX009 (ip), vehicle: saline
  T/C: 88 % of control

## CCN(CC)CCNC(=O)C(O)C1CCCCC1 (stereo not given)
[13]
  T/C: 99 % of control
[14]
  T/C: 99 % of control

## COc1cc(N2C(=O)C(=O)C(C(C)=O)C2=O)c(OC)cc1Cl (stereo not given)
[15]
  T/C: 100 % of control
[16]
  T/C: 99 % of control
[17]
  T/C: 100 % of control

## NC(N)=N/N=C/c1ccc(-c2ccccc2)cc1
dose: 6.25 mg/kg/injection, schedule: Q01DX009 (ip), vehicle: saline with Tween-80
  T/C: 104 % of control
dose: 6.25 mg/kg/injection, schedule: Q04DX003 (ip), vehicle: saline with Tween-80
  T/C: 100 % of control
dose: 12.5 mg/kg/injection, schedule: Q01DX009 (ip), vehicle: saline with Tween-80
  T/C: 104 % of control
dose: 12.5 mg/kg/injection, schedule: Q04DX003 (ip), vehicle: saline with Tween-80
  T/C: 100 % of control
dose: 25.0 mg/kg/injection, schedule: Q04DX003 (ip), vehicle: saline with Tween-80
  T/C: 100 % of control

## CN(C)c1ccc(/C=N/NC(=O)c2ccccc2N)c(Cl)c1
[13]
  T/C: 96 % of control
[14]
  T/C: 89 % of control

## [CH3][Sn]1([CH3])[O]C2C(O)OC(CO)C(O)C2[O]1 (stereo not given)
dose: 6.25 mg/kg/injection, schedule: Q01DX005 (ip), vehicle: Klucel (hydroxypropylcellulose) (HPC)
  T/C: 108 % of control and 113 % of control
dose: 12.5 mg/kg/injection, schedule: Q01DX005 (ip), vehicle: Klucel (hydroxypropylcellulose) (HPC)
  T/C: 110 % of control and 111 % of control (2×)
dose: 25.0 mg/kg/injection, schedule: Q01DX005 (ip), vehicle: Klucel (hydroxypropylcellulose) (HPC)
  T/C: 109 % of control and 120 % of control and 121 % of control

## CCCCCOCC(=O)O
dose: 25.0 mg/kg/injection, schedule: Q01DX009 (ip), vehicle: saline with Tween-80
  T/C: 104 % of control
dose: 50.0 mg/kg/injection, schedule: Q01DX009 (ip), vehicle: saline with Tween-80
  T/C: 94 % of control
dose: 100.0 mg/kg/injection, schedule: Q01DX009 (ip), vehicle: saline with Tween-80
  T/C: 96 % of control

## CC(=O)O.CC(C)=CCC(OC(=O)C=C(C)C)c1cc(O)c2c(O)ccc(O)c2c1O.[Cr] (stereo not given)
[18]
  T/C: 93 % of control
[19]
  T/C: 93 % of control
[20]
  T/C: 94 % of control

## COC1C(O)C(CO)OC1n1ccc(NC(=O)c2ccccc2)nc1=O (stereo not given)
[4]
  T/C: 98 % of control and 93 % of control
[5]
  T/C: 94 % of control
[6]
  T/C: 91 % of control and 93 % of control

## COc1ccc(OC)c2c1C(=O)C=CC2=O
dose: 1.56 mg/kg/injection, schedule: Q01DX001 (ip), vehicle: saline
  T/C: 108 % of control
dose: 3.13 mg/kg/injection, schedule: Q01DX001 (ip), vehicle: saline
  T/C: 110 % of control
dose: 6.25 mg/kg/injection, schedule: Q01DX001 (ip), vehicle: saline
  T/C: 108 % of control

## CSC1=NCc2c(sc3c2CCCC3)N1
[1]
  T/C: 100 % of control
[2]
  T/C: 106 % of control
[3]
  T/C: 98 % of control

## O=c1[nH]cncc1CCC1OCCO1
[10]
  T/C: 97 % of control
[11]
  T/C: 98 % of control
[12]
  T/C: 103 % of control

## COC1OC(COC(=O)c2ccccc2)C(=O)C(OC(=O)c2ccccc2)C1N(O)c1ccccc1 (stereo not given)
dose: 7.5 mg/kg/injection, schedule: Q01DX005 (ip), vehicle: Klucel (hydroxypropylcellulose) (HPC)
  T/C: 99 % of control
dose: 15.0 mg/kg/injection, schedule: Q01DX005 (ip), vehicle: Klucel (hydroxypropylcellulose) (HPC)
  T/C: 104 % of control
dose: 30.0 mg/kg/injection, schedule: Q01DX005 (ip), vehicle: Klucel (hydroxypropylcellulose) (HPC)
  T/C: 95 % of control

## C[C@@]12CCCC[C@@H]1N(CCN1CCCCC1)c1ccccc12
[13]
  T/C: 95 % of control
[14]
  T/C: 105 % of control
dose: 240.0 mg/kg/injection, schedule: Q01DX005 (ip), vehicle: saline with Tween-80
  T/C: 98 % of control

## CCCCCCCC/C=C/CCCCCCCC(=O)N(CCOC(=O)C(C)(C)C)CCOC(=O)C(C)(C)C
[15]
  T/C: 104 % of control
[16]
  T/C: 112 % of control
[17]
  T/C: 111 % of control

## CC(=O)OC1OC(COS(C)(=O)=O)C(OC(C)=O)C(OS(C)(=O)=O)C1OC(C)=O (stereo not given)
[7]
  T/C: 92 % of control
[8]
  T/C: 118 % of control
dose: 400.0 mg/kg/injection, schedule: Q01DX009 (ip), vehicle: saline
  T/C: 88 % of control

## COc1c(CBr)c(CBr)c(OC)c2c1C(=O)c1ccccc1C2=O
dose: 12.5 mg/kg/injection, schedule: Q01DX005 (ip), vehicle: saline with Tween-80
  T/C: 100 % of control
dose: 25.0 mg/kg/injection, schedule: Q01DX005 (ip), vehicle: saline with Tween-80
  T/C: 99 % of control
[21]
  T/C: 100 % of control and 112 % of control
[22]
  T/C: 95 % of control

## CCN(CC)CCN(C(=O)OCCOC(=O)N(CCN(CC)CC)c1cccc2sc3ccccc3c(=O)c12)c1cccc2sc3ccccc3c(=O)c12
[21]
  T/C: 99 % of control
[22]
  T/C: 106 % of control
dose: 200.0 mg/kg/injection, schedule: Q01DX005 (ip), vehicle: saline with Tween-80
  T/C: 105 % of control

## O=C1c2ccccc2C(=O)N1c1ccc(C(F)(F)F)cc1[N+](=O)[O-]
dose: 100.0 mg/kg/injection, schedule: Q04DX003 (ip), vehicle: saline
  T/C: 91 % of control
dose: 200.0 mg/kg/injection, schedule: Q04DX003 (ip), vehicle: saline
  T/C: 100 % of control
dose: 400.0 mg/kg/injection, schedule: Q04DX003 (ip), vehicle: saline
  T/C: 93 % of control

## Cc1onc(-c2ccccc2)c1C(=O)c1ccccc1
[7]
  T/C: 99 % of control
[8]
  T/C: 100 % of control
[9]
  T/C: 99 % of control

## NC(=S)N/N=C/c1ccccc1
dose: 12.5 mg/kg/injection, schedule: Q04DX003 (ip), vehicle: Klucel (hydroxypropylcellulose) (HPC)
  T/C: 116 % of control
dose: 25.0 mg/kg/injection, schedule: Q04DX003 (ip), vehicle: Klucel (hydroxypropylcellulose) (HPC)
  T/C: 109 % of control

## O=C1OCC/C1=C\N1CCCCC1
[10]
  T/C: 102 % of control
[11]
  T/C: 100 % of control
[12]
  T/C: 106 % of control

## CCC1C(=O)OCc2c1cc1n(c2=O)Cc2ccccc2-1 (stereo not given)
[18]
  T/C: 97 % of control
[19]
  T/C: 92 % of control
[20]
  T/C: 90 % of control
